Patent US9169254B2, “Spiroimidazolone derivative” (Chugai Seiyaku Kabushiki Kaisha, priority 2009, dated 2015)

Biological target: T1, human PTH1 receptor (Homo sapiens, UniProt Q03431)
T1 sequence (Q03431 27-593): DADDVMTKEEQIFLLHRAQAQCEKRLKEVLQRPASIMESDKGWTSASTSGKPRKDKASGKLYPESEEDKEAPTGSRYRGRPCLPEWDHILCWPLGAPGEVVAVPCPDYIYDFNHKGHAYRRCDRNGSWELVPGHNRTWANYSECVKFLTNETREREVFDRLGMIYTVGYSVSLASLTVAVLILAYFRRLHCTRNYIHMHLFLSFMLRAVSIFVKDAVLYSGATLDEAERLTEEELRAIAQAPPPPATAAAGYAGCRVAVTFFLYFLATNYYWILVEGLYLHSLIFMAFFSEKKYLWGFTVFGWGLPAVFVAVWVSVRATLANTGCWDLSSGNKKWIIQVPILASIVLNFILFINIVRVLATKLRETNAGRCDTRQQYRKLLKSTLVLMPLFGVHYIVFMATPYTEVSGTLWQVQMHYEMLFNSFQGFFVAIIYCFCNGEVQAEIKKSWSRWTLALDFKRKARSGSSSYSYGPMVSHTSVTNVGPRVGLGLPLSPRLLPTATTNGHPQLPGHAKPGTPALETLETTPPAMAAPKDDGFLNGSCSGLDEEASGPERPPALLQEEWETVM
Experiment: In vitro cAMP signal activity in HKRK-B7 cells (LLC-PK1 cells overexpressing the human PTH1 receptor)
Type: cell-based
Details: HKRK-B7 cells; compound at 1×10^−3 M; cAMP produced as percentage of that produced by hPTH(1-34) at 100 nM

Row | Structure (SMILES) | cAMP production activity (%)
1 | CCCC[C@@H]1CCC[C@H](C2=NC3(CCN(S(=O)(=O)CCc4c(C)cc(N(C)C(N)=O)cc4C)CC3)C(=O)N2)C1 [Compound 1145, 1-(4-{2-[2-((1S,3R)-3-butyl-cyclohexyl)-4-oxo-1,3,8-triaza-spiro[4.5]dec-1-ene-8-sulfonyl]-ethyl}-3,5-dimethyl-phenyl)-1-methyl-urea] | 102
2 | Cc1cc(C(=O)N2CCC(O)(CF)CC2)cc(C)c1/C=C/S(=O)(=O)N1CCC2(CC1)N=C(C1CCC(C)CC1)NC2=O (centres unmarked) [Compound 1000, 8-{(E)-2-[4-(4-fluoromethyl-4-hydroxy-piperidine-1-carbonyl)-2,6-dimethyl-phenyl]-ethenesulfonyl}-2-(4-methyl-cyclohexyl)-1,3,8-triaza-spiro[4.5]dec-1-en-4-one] | 86
3 | Cc1cc(NCC2CNC(=O)O2)ccc1/C=C/S(=O)(=O)N1CCC2(CC1)N=C(C1CCCCC1)NC2=O (centres unmarked) [Compound 207, 2-cyclohexyl-8-((E)-2-{2-methyl-4-[(2-oxo-oxazolidin-5-ylmethyl)-amino]-phenyl}-ethenesulfonyl)-1,3,8-triaza-spiro[4.5]dec-1-en-4-one] | 36
4 | Cc1cc(C(=O)N2CCC(C)(O)CC2)cc(C)c1/C=C/S(=O)(=O)N1CCC2(CC1)N=C(c1ccc(F)c(OCCCC(F)(F)F)c1)NC2=O [Compound 1218, 2-[4-fluoro-3-(4,4,4-trifluoro-butoxy)-phenyl]-8-{(E)-2-[4-(4-hydroxy-4-methyl-piperidine-1-carbonyl)-2,6-dimethyl-phenyl]-ethenesulfonyl}-1,3,8-triaza-spiro[4.5]dec-1-en-4-one] | 90
5 | Cc1cc(C(=O)N2CCC(O)CC2)cc(C)c1/C=C/S(=O)(=O)N1CCC2(CC1)N=C(c1cccc(C(F)(F)F)c1F)NC2=O [Compound 244, 2-(2-fluoro-3-trifluoromethyl-phenyl)-8-{(E)-2-[4-(4-hydroxy-piperidine-1-carbonyl)-2,6-dimethyl-phenyl]-ethenesulfonyl}-1,3,8-triaza-spiro[4.5]dec-1-en-4-one] | 83
6 | COC(=O)N(C)c1ccc(/C=C/S(=O)(=O)N2CCC3(CC2)N=C(c2cccc(OC(F)(F)F)c2)NC3=O)c(C)c1 [Compound 467, methyl-(3-methyl-4-{(E)-2-[4-oxo-2-(3-trifluoromethoxy-phenyl)-1,3,8-triaza-spiro[4.5]dec-1-ene-8-sulfonyl]-vinyl}-phenyl)-carbamic acid methyl ester] | 60
7 | Cc1cc(OCCOC[C@H](O)CO)cc(C)c1/C=C/S(=O)(=O)N1CCC2(CC1)N=C(C1CCC(CCC(F)(F)F)CC1)NC2=O (stereo partly drawn) [Compound 698, 8-((E)-2-{4-[2-((R)-2,3-dihydroxy-propoxy)-ethoxy]-2,6-dimethyl-phenyl}-ethenesulfonyl)-2-[4-(3,3,3-trifluoro-propyl)-cyclohexyl]-1,3,8-triaza-spiro[4.5]dec-1-en-4-one] | 62
8 | Cc1cc(CN2C(=O)CCC2=O)cc(C)c1CCS(=O)(=O)N1CCC2(CC1)N=C(C1CCC(CCC(F)(F)F)CC1)NC2=O (centres unmarked) [Compound 777, 1-[3,5-dimethyl-4-(2-{4-oxo-2-[4-(3,3,3-trifluoro-propyl)-cyclohexyl]-1,3,8-triaza-spiro[4.5]dec-1-ene-8-sulfonyl}-ethyl)-benzyl]-pyrrolidine-2,5-dione] | 71
9 | Cc1cc(C(=O)N2CCN(C)CC2)cc(C)c1/C=C/S(=O)(=O)N1CCC2(CC1)N=C(C1CCC(CCC(F)(F)F)CC1)NC2=O (centres unmarked) [Compound 991, 8-{(E)-2-[2,6-dimethyl-4-(4-methyl-piperazine-1-carbonyl)-phenyl]-ethenesulfonyl}-2-[4-(3,3,3-trifluoro-propyl)-cyclohexyl]-1,3,8-triaza-spiro[4.5]dec-1-en-4-one] | 64
10 | Cc1cc(C(=O)N2CCC(C)(O)CC2)cc(C)c1/C=C/S(=O)(=O)N1CCC2(CC1)N=C(c1ccc(OCC(F)(F)C(F)F)c(C(F)(F)F)c1)NC2=O [Compound 1199, 8-{(E)-2-[4-(4-hydroxy-4-methyl-piperidine-1-carbonyl)-2,6-dimethyl-phenyl]-ethenesulfonyl}-2-[4-(2,2,3,3-tetrafluoro-propoxy)-3-trifluoromethyl-phenyl]-1,3,8-triaza-spiro[4.5]dec-1-en-4-one] | 77
11 | O=C(c1ccc2ncccc2c1)N1CCCC(C2=NC3(CCN(S(=O)(=O)CCc4cccc5ccccc45)CC3)C(=O)N2)C1 (centres unmarked) [Compound 431, 8-(2-naphthalen-1-yl-ethanesulfonyl)-2-[1-(quinoline-6-carbonyl)-piperidin-3-yl]-1,3,8-triaza-spiro[4.5]dec-1-en-4-one] | 14
12 | C=CCCCCC1=NC2(CCN([S@TB17](=O)(=O)/C=C/c3c(C)cc(N(C)C(N)=O)cc3C)CC2)C(=O)N1 [Compound 1119, 1-{4-[(E)-2-(2-hex-5-enyl-4-oxo-1,3,8-triaza-spiro[4.5]dec-1-ene-8-sulfonyl)-vinyl]-3,5-dimethyl-phenyl}-1-methyl-urea] | 136
13 | CC(=O)Nc1ccc(CCS(=O)(=O)N2CCC3(CC2)N=C(C2CCC(F)(CCCF)CC2)NC3=O)c(C)c1 (centres unmarked) [Compound 1073, N-[4-(2-{2-[4-fluoro-4-(3-fluoro-propyl)-cyclohexyl]-4-oxo-1,3,8-triaza-spiro[4.5]dec-1-ene-8-sulfonyl}-ethyl)-3-methyl-phenyl]-acetamide] | 66
14 | Cc1cc(NS(N)(=O)=O)ccc1CCS(=O)(=O)N1CCC2(CC1)N=C(c1cccc(OC(F)(F)F)c1)NC2=O [Compound 874, N-(3-methyl-4-{2-[4-oxo-2-(3-trifluoromethoxy-phenyl)-1,3,8-triaza-spiro[4.5]dec-1-ene-8-sulfonyl]-ethyl}-phenyl)-sulfamide] | 61
15 | CC(=O)N(C)Cc1cc(C)c(/C=C/S(=O)(=O)N2CCC3(CC2)N=C(C2CCC(C)CC2)NC3=O)c(C)c1 (centres unmarked) [Compound 517, N-(3,5-dimethyl-4-{(E)-2-[2-(4-methyl-cyclohexyl)-4-oxo-1,3,8-triaza-spiro[4.5]dec-1-ene-8-sulfonyl]-vinyl}-benzyl)-N-methyl-acetamide] | 58
16 | Cc1cc(N(C)C(N)=O)cc(C)c1CCS(=O)(=O)N1CCC2(CC1)N=C(c1ccc(F)c(OC(F)(F)F)c1)NC2=O [Compound 1028, 1-(4-{2-[2-(4-Fluoro-3-trifluoromethoxy-phenyl)-4-oxo-1,3,8-triaza-spiro[4.5]dec-1-ene-8-sulfonyl]-ethyl}-3,5-dimethyl-phenyl)-1-methyl-urea] | 75
17 | CCCCCCCCCC1=NC2(CCN(S(=O)(=O)CCc3ccc(N4CCOCC4=O)cc3C)CC2)C(=O)N1 [Compound 657, 8-{2-[2-Methyl-4-(3-oxo-morpholin-4-yl)-phenyl]-ethanesulfonyl}-2-nonyl-1,3,8-triaza-spiro[4.5]dec-1-en-4-one] | 124
18 | O=C1NC(c2ccc(Cl)cc2Cl)=NC12CCN(S(=O)(=O)c1ccc(F)c(Cl)c1)CC2 [Compound 49, 8-(3-chloro-4-fluoro-benzenesulfonyl)-2-(2,4-dichloro-phenyl)-1,3,8-triaza-spiro[4.5]dec-1-en-4-one] | 29
19 | Cc1cc(N(C)C(N)=O)cc(C)c1CCS(=O)(=O)N1CCC2(CC1)N=C(C1C3CCCC1CCC3)NC2=O (centres unmarked) [Compound 1053, 1-{4-[2-(2-bicyclo[3.3.1]non-9-yl-4-oxo-1,3,8-triaza-spiro[4.5]dec-1-ene-8-sulfonyl)-ethyl]-3,5-dimethyl-phenyl}-1-methyl-urea] | 70
20 | Cc1cc(C(=O)N2CCC(OC[C@H](O)CO)CC2)cc(C)c1/C=C/S(=O)(=O)N1CCC2(CC1)N=C(C1CCC(CCC(F)(F)F)CC1)NC2=O (stereo partly drawn) [Compound 993, 8-((E)-2-{4-[4-((R)-2,3-dihydroxy-propoxy)-piperidine-1-carbonyl]-2,6-dimethyl-phenyl}-ethenesulfonyl)-2-[4-(3,3,3-trifluoro-propyl)-cyclohexyl]-1,3,8-triaza-spiro[4.5]dec-1-en-4-one] | 64
21 | Cc1cc(N(CCF)C(N)=O)cc(C)c1CCS(=O)(=O)N1CCC2(CC1)N=C(C1CCC(CCC(F)(F)F)CC1)NC2=O (centres unmarked) [Compound 818, 1-[3,5-dimethyl-4-(2-{4-oxo-2-[4-(3,3,3-trifluoro-propyl)-cyclohexyl]-1,3,8-triaza-spiro[4.5]dec-1-ene-8-sulfonyl}-ethyl)-phenyl]-1-(2-fluoro-ethyl)-urea] | 79
22 | Cc1cc(N2C(=O)CNC2=O)ccc1/C=C/S(=O)(=O)N1CCC2(CC1)N=C(C1CCC(C)CC1)NC2=O (centres unmarked) [Compound 504, 3-(3-methyl-4-{(E)-2-[2-(4-methyl-cyclohexyl)-4-oxo-1,3,8-triaza-spiro[4.5]dec-1-ene-8-sulfonyl]-vinyl}-phenyl)-imidazolidine-2,4-dione] | 60
23 | Cc1cc(N(C)C(N)=O)cc(C)c1CCS(=O)(=O)N1CCC2(CC1)N=C(CCCCCCCCCc1ccccc1)NC2=O [Compound 1348, 1-(3,5-dimethyl-4-{2-[4-oxo-2-(9-phenyl-nonyl)-1,3,8-triaza-spiro[4.5]dec-1-ene-8-sulfonyl]-ethyl}-phenyl)-1-methyl-urea] | 95
